Results reported in patent publication US8592419B2, “Ceramides and apoptosis-signaling ligand” (MUSC Foundation for Research Development, priority 2004, dated 2013).

Columns and labels:
[1] = test system: five different PCa cell lines; assay: MTS cell viability assay, LCL204 treatments; format: cell-based, human; details: 24 hours treatment
Experimental: Cell lines. The human PCa cell lines DU145, LNCaP, DuPro, and PC-3 were purchased from ATCC (Manassas, Va., USA), and PPC-1 cells were from Dr. Yi Lu at the University of Tennessee (Memphis, Tenn.). All cells were cultured in RPMI 1640 (Mediatech Inc.; Herndon, Va., USA) supplemented with 10% heat-inactivated BGS (Hyclone; Logan, Utah, USA). Cells were maintained in 5% CO2 at 37° C. All experiments were performed in RPMI 1640 supplemented with 2% heat-inactivated BGS.
(§1) MTS cytotoxicity assays for LCL204 treatments. Cell viability was determined using the CellTiter 96 AQueous One Solution Cell Proliferation Assay (Promega; Madison, Wis., USA). 1×10^4 cells per well were seeded in 96-well plates overnight. The next day media was removed and replaced with either 100 μl media with vehicle control or media containing LCL204 at desired concentrations. Assays were carried out according to manufacturer's instruction as previously described (60). For experiments using enzyme inhibitors and LCL204, media was removed and replaced with 50 μl media containing vehicle only or indicated inhibitor. Cells were pretreated 1 hour at 37° C. before adding 50 μl media containing vehicle, inhibitor only, LCL204 only (2× concentration), or a combination. The remainder of the assay was carried out as described above.

[2] = test system: DU145 cells; assay: MTS cell viability assay in DU145 cells; format: cell-based, human; details: in vitro
Experimental: as §1

[3] = test system: total ceramide levels in DU145 cells; assay: Ceramide measurement by mass spectrometry; format: cell-based, human; details: 10 μM
Experimental: Ceramide measurement. 2.1×10^6 cells were seeded in 100 mm plates overnight. The next day, media was removed and replaced with media containing vehicle control or LCL204 (10 μM) for indicated time points. Following treatment, cells were harvested by gentle scraping and immediate centrifugation at 4° C. for 5 minutes at 400×g. Cell pellets were then resuspended in ice cold PBS and stored at −80° C. For sphingolipid analysis, cell pellets were examined using mass spectometry as previously described (61).

[4] = test system: Bax; assay: Immunoblot of Bax; format: cell-based, human; details: PC-3 cells, 10 μM
Experimental: Immunoblot analysis. Cells were seeded in 60mm plates as described above and treated accordingly. Cells were lifted by gently scraping the plates, washed once with ice cold PBS and then lysed in lysis buffer (PBS, 1% Triton X-100, 10% glycerol) containing protease inhibitors pepstatin A (0.5 μg/ml), leupeptin (0.5 μg/ml), aprotinin (5 μg/ml), and PMSF (100 μg/ml) for 10 minutes on ice. Insoluble material was removed by centrifugation at 14,000 rpm for 15 minutes at 4° C. The supernatants were then supplemented with SDS at a final concentration of 2% and stored at −80° C. Protein concentrations were determined using the DC Protein Assay (BioRad Laboratories; Hercules, CA, USA) according to the manufacturer's instructions. 50 μg of protein per sample (unless otherwise indicated) were separated on NuPAGE 4-12% Bis-Tris gels (Invitrogen; Carlsbad, CA, USA) and transferred to nitrocellulose membranes (BioRad). Following transfer, membranes were blocked for 1 hour at room temperature in Tris-buffered saline (TBS) containing 0.1% Tween-20 and 5% nonfat dry milk and incubated overnight at 4° C. with primary antibody at a dilution of 1:2,000(actin), 1:1,000(cytochrome c, COX IV, Bax, Bak, p53, p38, P-p38), 1:500(P-JNK, JNK), 1:250 (AC, p73), or 1:400(LAMP-1, cathepsin B). Overnight incubations were performed in 5% milk in TBS-Tween. […]

[5] = test system: cathepsin B; assay: Cathepsin B translocation to cytosol (subcellular fractionation, Western blot, activity assay); format: cell-based, human; details: DU145 cells
Experimental: Subcellular fractionation. For cytochrome c immunoblot, cells were seeded and treated as described above. Cells were harvested at 4, 12, or 24 hours after treatment as described previously (62) and proteins (15 μg) were separated by gel electrophoresis and immunoblotted for cytochrome c as above. The protocol for separating cytosolic and heavy membrane fractions is a modified version of that used by Desahger et al. (63). Briefly, cells were seeded and treated in 60 mm plates as described above. Cells were harvested at 0, 0.5, 1, and 2 hours after treatment, washed once in PBS, and gently resuspended in isotonic mitochondrial buffer (210 mM mannitol, 70 mM sucrose, 1 mM EDTA, 10 mM HEPES, pH 7.0) supplemented with protease inhibitors. Cells were then transferred to 1.5 mL microcentrifuge tubes and homogenized using 40 strokes with a polished (fine grain sandpaper) Teflon pestle. Fractions were separated using differential centrifugation as described in the reference. All fractions were stored at −80° C. Cytosolic and heavy membrane fractions (30 and 15 μg, respectively) were separated on NuPAGE gels and immunoblotted as described above. […] Enzyme activity per 50 μg lysate was measured using the fluorogenic cathepsin B substrate 111 (Calbiochem) according to the manufacturer's protocol.

[6] = molecular target: T1, acid ceramidase (AC) (Homo sapiens, UniProt Q13510); assay: Immunoblot of acid ceramidase protein; format: cell-based; details: DU145 cells
T1 construct: endogenous in cells
T1 sequence (Q13510 22-395): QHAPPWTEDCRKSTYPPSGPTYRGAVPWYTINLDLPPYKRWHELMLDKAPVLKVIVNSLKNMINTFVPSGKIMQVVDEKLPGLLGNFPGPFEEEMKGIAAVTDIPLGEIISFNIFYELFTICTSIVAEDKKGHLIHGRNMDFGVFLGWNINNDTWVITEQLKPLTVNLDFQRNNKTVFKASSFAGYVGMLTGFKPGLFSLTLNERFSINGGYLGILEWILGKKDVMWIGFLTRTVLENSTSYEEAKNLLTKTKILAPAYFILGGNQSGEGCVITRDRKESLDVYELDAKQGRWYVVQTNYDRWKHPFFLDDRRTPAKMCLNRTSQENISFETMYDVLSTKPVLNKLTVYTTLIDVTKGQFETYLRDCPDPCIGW
Experimental: Immunoblot analysis. Cells were seeded in 60mm plates as described above and treated accordingly. Cells were lifted by gently scraping the plates, washed once with ice cold PBS and then lysed in lysis buffer (PBS, 1% Triton X-100, 10% glycerol) containing protease inhibitors pepstatin A (0.5 μg/ml), leupeptin (0.5 μg/ml), aprotinin (5 μg/ml), and PMSF (100 μg/ml) for 10 minutes on ice. Insoluble material was removed by centrifugation at 14,000 rpm for 15 minutes at 4° C. The supernatants were then supplemented with SDS at a final concentration of 2% and stored at −80° C. Protein concentrations were determined using the DC Protein Assay (BioRad Laboratories; Hercules, CA, USA) according to the manufacturer's instructions. 50 μg of protein per sample (unless otherwise indicated) were separated on NuPAGE 4-12% Bis-Tris gels (Invitrogen; Carlsbad, CA, USA) and transferred to nitrocellulose membranes (BioRad). Following transfer, membranes were blocked for 1 hour at room temperature in Tris-buffered saline (TBS) containing 0.1% Tween-20 and 5% nonfat dry milk and incubated overnight at 4° C. with primary antibody at a dilution of 1:2,000(actin), 1:1,000(cytochrome c, COX IV, Bax, Bak, p53, p38, P-p38), 1:500(P-JNK, JNK), 1:250 (AC, p73), or 1:400(LAMP-1, cathepsin B). Overnight incubations were performed in 5% milk in TBS-Tween. Following overnight incubation, membranes were washed three times for 10 minutes each in TBS-Tween and incubated for 1 hour at room temperature with secondary antibody in 5% milk TBS-Tween at a dilution 1:5,000 (goat anti-mouse IgG) or 1:50,000 (goat anti-rabbit). Membranes were then washed three times more and incubated for 5 minutes at room temperature with Super Signal HRP substrate (Pierce Biotechnology Inc.; Rockford, IL, USA).

CCCCCCCCCCCCCCN[C@H](CO)[C@H](O)c1ccc([N+](=O)[O-])cc1.Cl [LCL204, (1R,2R) D-threo-2-N-Tetradecylamino-1-(4′-nitrophenyl)-1,3-propandiol hydrochloride]
cell death [1]: concentration-dependent cell death in the micromolar range | potency as inducer of cell death compared with B13 [2]: much more potent inducer of cell death than B13 | total ceramide levels [3]: rise in total ceramide levels within one hour | Bax protein levels [4]: unaffected | time within which cytosolic cathepsin B activity increased ([5]; 10 μM, enzyme activity assay): ≤ 30 min | time within which active cathepsin B was detected in the cytosolic fraction ([5]; Western blot): ≤ 30 min | earliest down-regulation of AC ([6]; 5 μM): 2 h | AC expression levels [6]: dose and time-dependent decrease in AC expression levels
